This note sets out measurements from paper PMC8102702, “Azithromycin Exhibits Activity Against Pseudomonas aeruginosa in Chronic Rat Lung Infection Model” (Frontiers in Microbiology, 2021).

One series relates to P. aeruginosa PA-14. Put plainly: Chronic rat lung (biofilm) infection model, lung bacterial load. Format: in vivo, Sprague-Dawley rats. Particulars: 75 mg/kg PO, q24h for 4 days, started 3 days post-infection; lungs 22 h after last dose. An excerpt: Specific pathogen-free female Sprague–Dawley (SD) rats, weighing 200 ± 20 g (age 8 weeks), were used for the study. The rats were procured from Vivo Biotech Pvt. Ltd., Hyderabad, India. The animals were housed in a pathogen-free animal facility and allowed 5 days of acclimatization in the study room before initiating the experiment. Feed and water were provided ad libitum during acclimatization and the study periods. All animal studies were approved by the institutional animal ethics committee. The animal studies were conducted under the strict guidelines of the committee for the Purpose of Control and Supervision of Experiments on Animals, Ministry of Environment, Forests and Climate Change, New Delhi, Government of India, and under the supervision of the institutional committee.
To determine the in vivo efficacy of azithromycin, a chronic biofilm model of P. aeruginosa was established in SD rats, which mimic the human chronic infection ([Hoover et al., 2017]; [Chawanpaiboon et al., 2019]). A semisolid 0.25% w/v agar beads suspension was prepared and autoclaved a day before the in vivo experiment and stored overnight at 4°C. […] The rats were then euthanized 22 h after the last dose, and the lungs’ bacterial load was determined by plating diluted lung homogenates on MHA.

The test system of series [1] is P. aeruginosa PA-14 biofilm. Briefly: Solid-surface biofilm formation on catheter piece (CFU, SEM). Format: cell-based, Pseudomonas aeruginosa. Conditions: P. aeruginosa PA-14, 24 h, azithromycin 2 or 16 μg/ml. As for the experimental part:
(§1) To further evaluate the effect of azithromycin on planktonic cells and biofilm formation, a time-kill kinetic study was performed. Briefly, 10 ml of LB broth containing 0.2% glucose and a sterile 2-cm-long piece of the catheter were pre-warmed at 26 ± 2°C in reaction tubes, and the different concentrations of azithromycin (2 or 16 μg/ml) were added to tubes. The bacterial inoculum of P. aeruginosa PA-14 was prepared as described above and added to the tubes to achieve a final inoculum of ∼1 × 10^5 CFU/ml. The tubes were incubated at 26 ± 2°C. The planktonic cell counts were determined at various time-points by serial dilution plating onto a trypticase soy agar plate. After 24 h of incubation, the catheter pieces from each tube were removed, non-adherent bacteria were washed from the catheter pieces, and the number of CFU embedded in biofilm per catheter was determined as described earlier ([Kumar et al., 2016], [2019]). The experiment was performed in triplicate, and the mean log10 killing of planktonic cells and biofilm inhibition were calculated for each concentration. To further assess biofilm formation in the absence (drug-free control) or presence of azithromycin, the catheter pieces were also sectioned and processed for scanning electron microscopy (SEM).

Series [2] deals with pelA promoter-lacZ in recombinant P. aeruginosa G2. Put plainly: β-galactosidase activity of pel promoter-lacZ transcriptional fusion. The format is cell-based, Pseudomonas aeruginosa. As for the experimental part: To understand the molecular mechanism of biofilm inhibition, a recombinant mutant P. aeruginosa G2-containing promoterless lacZ gene under promoter control of pelA was gifted to us by Prof. Kilter ([Sakuragi and Kolter, 2007]). The β-galactosidase activity was performed in the absence and presence of different concentrations of azithromycin and levofloxacin, as described earlier ([Sakuragi and Kolter, 2007]).

Series [3] relates to QS molecule (3-O-C12 HSL) of P. aeruginosa. Briefly: QS molecule in epithelial lining fluid of infected rats. Format: in vivo. Conditions: azithromycin treated rats vs placebo control, 7 days post-infection.
The test system of series [4] is pre-formed biofilm of P. aeruginosa PAO1. Briefly: Activity on pre-formed biofilm (eradication), crystal violet. The format is cell-based. Particulars: Pseudomonas aeruginosa; pre-formed 24 h biofilm of P. aeruginosa PAO1, 24 h exposure; read-out: minimum biofilm eradication concentration (MBEC50). As for the experimental part: The efficacy of azithromycin was also evaluated on a pre-formed biofilm of P. aeruginosa PAO1 to assess the therapeutic or eradicative effect of azithromycin as described earlier ([Macia et al., 2014]). The bacterial suspension was prepared as described above and inoculated at 200 μl/well in a 96-well plate. After 24 h of incubation, the wells were emptied and washed with PBS and then spiked with different concentrations (16–0.015 μg/ml) of azithromycin prepared in LB broth containing 0.2% glucose. The plate was further incubated for 24 h, and the effect of azithromycin was assessed as described above.

Series [5] is described as follows: Pharmacokinetics in plasma and lung ELF of P. aeruginosa-infected rats. Particulars: rat, in vivo, po, 75 mg/kg; for Kp: Sprague-Dawley, 75 mg/kg PO, infected rats. The procedure:
The concentrations of azithromycin were assessed in the plasma and lung epithelial lining fluid (ELF) of the rats infected with P. aeruginosa PA-14. Intratracheal infection in rats was performed as described above. A single dose of 75 mg/kg of azithromycin was administered orally through gavage. Blood and broncho-alveolar lavage (BAL) fluid (with 2 ml of normal saline wash) were collected at different time-points up to 24 h post-dose from each animal by gross dissection. For the collection of BAL, 2 ml of sterile cold PBS was infused into the animal through the trachea and into the bronchial cavity and aspirated out. Plasma was harvested from blood samples by centrifugation. The azithromycin concentrations in plasma and BAL samples were determined using liquid chromatography with tandem mass spectrometry. The apparent volume of ELF (VELF) in BAL fluid was determined by the urea dilution method using the urea assay kit from BioChain (Hayward, CA). The concentration of azithromycin in ELF (CELF) was determined as
where CBAL is the measured concentration of azithromycin in BAL fluid.

The subject of series [6] is P. aeruginosa PA-14 planktonic cells. Briefly: Time-kill kinetic study, planktonic cells. Format: cell-based, Pseudomonas aeruginosa. Conditions: P. aeruginosa PA-14, LB media. The procedure:
as §1

Series [7] has as its system P. aeruginosa PAO1 biofilm. Briefly: In vitro biofilm formation inhibition, crystal violet, 96-well plate. The format is cell-based. Conditions: Pseudomonas aeruginosa; P. aeruginosa PAO1, 24 h exposure, LB broth with 0.2% glucose; read-out: biofilm preventive concentration (BPC50). The procedure:
The effect of azithromycin and clindamycin on P. aeruginosa biofilm formation was assessed as described previously ([Sharma et al., 2009]; [Barman et al., 2016]; [Kumar et al., 2019]). Briefly, the overnight-grown culture of P. aeruginosa PAO1 in TSB was pelleted and resuspended in Luria-Bertani broth containing 0.2% glucose (10^7 CFU/ml). The bacterial suspension was spiked with different concentrations (16-0.015 μg/ml) of azithromycin or clindamycin in 96-well plates and incubated at 26 ± 2°C. The effects of azithromycin and clindamycin on inhibition of biofilm formation were assayed after 24 h of exposure. The wells were emptied and washed three times with phosphate-buffered saline (PBS; pH 7.3), and the adherent biofilm was stained with 200 μl of 1% crystal violet for 30 min and rinsed with distilled water. The adherent biofilm in the wells was solubilized with 200 μl of 30% acetic acid, and the optical density at 600 nm (OD600) was measured to quantify the formed biofilms. Each experiment was performed thrice, and the mean percent inhibition and standard deviations were calculated. The relative inhibition of biofilms, expressed as a mean percentage, was determined using the following formula: Percentinhibition=100-{([…]-controlwell)×100}

A further series concerns P. aeruginosa G2. Put plainly: MIC. Format: cell-based. Conditions: Pseudomonas aeruginosa.

≈ marks a conversion by molar mass, not a printed value. Like-named read-outs stand apart in the source and are kept apart here.

With `CC[C@H]1OC(=O)[C@H](C)[C@@H](O[C@H]2C[C@@](C)(OC)[C@@H](O)[C@H](C)O2)[C@H](C)[C@@H](O[C@@H]2O[C@H](C)C[C@H](N(C)C)[C@H]2O)[C@](C)(O)C[C@@H](C)CN(C)[C@H](C)[C@@H](O)[C@]1(C)O` [azithromycin], the “reduction in bacterial counts as compared to the placebo control” value in the series with P. aeruginosa PA-14 stood at 1.67 log10. Also, in series [1], the “solid-surface biofilm formation on catheter pieces” value was “no solid-surface biofilm formed”. The IC50 in [2] (Pseudomonas aeruginosa, read-out: inhibition of β-galactosidase activity, IC50) came out at 0.17 µg/mL (≈ 0.227 µM); in series [4], 7.49 µg/mL (≈ 10 µM); in [7] it was 0.122 µg/mL (≈ 0.163 µM). Also, the “level of QS molecules in the ELF” value in [3] was “comparatively reduced level”. Also, the Kp in series [5] (read-out: lung ELF/plasma ratio of AUCinf) stood at 86; in series [5] (read-out: lung ELF/plasma ratio of Cmax), 81. Moreover, the highest level in [5] (Cmax) was 950 ± 300 ng/mL. Besides, in series [5], the Tmax came out at 2 h. Moreover, in series [6] (6 h), the “reduction in planktonic cell counts as compared to the drug-free control” value is given as 1.86 log10. The “effect on planktonic cell counts” value in [6] (24 h post-incubation) is given as “no effect”. Moreover, the MIC against P. aeruginosa G2 was above 0.032 µg/mL.
In the case of `C[C@H]1COc2c(N3CCN(C)CC3)c(F)cc3c(=O)c(C(=O)O)cn1c23` [levofloxacin], the “effect on β-galactosidase activity” value in series [2] (P. aeruginosa G2, sub-MIC concentrations) was “did not influence”. The MIC with P. aeruginosa G2 amounted to 0.001 µg/mL (≈ 0.00277 µM).
